The values below come from patent US11135224B2, “Methods of sensitizing estrogen receptor positive (ER+) breast cancer cells to endocrine therapy” (New York University, priority 2018, dated 2021).

Assay [1] concerns global protein synthesis in TamS and TamR cells. The assay is described as follows: [35S]-methionine metabolic labeling, overall protein synthesis. The assay is classed as cell-based, human. Conditions: 10 μM for 24 hours, [35S]-methionine labeling 30 minutes. On the procedure:
(§1) Hsp70 (loading control). […] Cells were treated with DMSO, 1 μM 4-OH Tam, 4-OH Tam and CGP 57380 (10 μM), or 1 μM 4-OH Tam, CGP57380, and 20 nM RAD001 therapies 24 hours after plating. Treatment was changed every 72 hours. Colonies were scored after 10 days counting only >50 cells/colony. Results are representative of three independent experiments. SEM is shown. […] Results from three independent experiments. Error bars represent SEM (n.s.=not significant). […] Equal amounts of RNA were resolved by sucrose gradient centrifugation and ribosome profiles monitored by UV absorbance 254 nm. Results are representative images of two independent experiments.
^35S-Methionine Metabolic Protein Labeling: Global protein synthesis was measured as previously described (Ramirez-Valle et al., “eIF4GI Links Nutrient Sensing by mTOR to Cell Proliferation and Inhibition of Autophagy,” J. Cell Biol. 181(2):293-307 (2008), which is incorporated herein by reference in its entirety). Cells (2×10^5) were seeded, in triplicate, into 6-well culture plates and allowed to adhere for 48-72 hours. Cells were labeled with 25 μCi ^355-methionine/cysteine protein labeling mix (PerkinElmer) for 30 minutes at 37° C. using DMEM without L-Methionine or L-Cysteine supplemented with 5% FBS. […] Protein concentration was measured by the BCA assay (Thermo Scientific). […]

The subject of assay [2] is eIF4E phosphorylation (MNK1). The assay is described as follows: Immunoblot of eIF4E phosphorylation, CGP57380 dose escalation in TamS and TamR cells. The format is cell-based, human. The conditions noted are these: escalating doses, 2 hours. On the procedure: Endogenous eIF4E was silenced by shRNA. Cell proliferation was assayed by MTT assay with cells treated with DMSO vehicle or 1 μM 4-OHT. Results are from three independent experiments. […] Endogenous eIF4E was silenced by shRNA. Cell proliferation was assayed by MTT assay using conditions described above for FIG. 4. Results from three independent experiments are shown. FIG. 6C is an immunoblot of TamS and TamR cells treated with escalating doses of CGP57380 (GCP) for 2 hours and lysed in NP-40 buffer; equal protein amounts were probed for P-eIF4E, total eIF4E, and β-actin (loading control). […] Cells were treated with DMSO, 1 μM 4-OHT, or 4-OHT and MNK1 inhibitor CGP. […]
(§2) Immunoblot Studies: In brief, cells were lysed in NP-40 buffer (50 mM HEPES, pH 7.0, 150 mM NaCl, 2 mM EDTA, 25 mM NaF, 25 mM β-glycerophosphate, 2 mM Na3VO4, 1% IGEPAL, and Complete Mini protease inhibitor cocktail tablet+/−EDTA; Roche) or RIPA lysis buffer (1% Triton X-100, 1% sodium deoxycholate, 0.1% SDS, 150 mM NaCl, 50 mM Tris, pH 7.4, 2 mM Na3VO4, 25 mM β-glycerophosphate, 15 mM NaF, and complete protease inhibitor mix; Roche) and lysate cleared by centrifugation at 13,000 rpm for 10 minutes at 4° C. Lysate protein concentration was determined for each sample using BCA assay. […] Quantitation was performed by determination of the integrated density of the bands using ImageJ software. […]

Assay [3] concerns ATF2 phosphorylation at Thr69/71 (target of RSK, JNK1, p38 MAPK) and eIF4B S422 (target of RSKs). The assay is described as follows: Immunoblot of ATF2 and eIF4B phosphorylation in TamR cells. The format is cell-based, human. Conditions: 10 μM for 6 hours. On the procedure: as §1, §2
(In general: In western blotting, separated proteins are transferred to a membrane and probed.)

Another assay deals with p38, JNK1, and RSKs. Conditions: at 10 μM; cited from earlier work.

`Nc1ncnc2n[nH]c(Nc3ccc(F)cc3)c12` [CGP57380]: the “reduction in global protein synthesis” value in assay [1] is on record as 10%. Moreover, in assay [2], the “concentration for complete inhibition of eIF4E phosphorylation” value came out at 10 µM. Besides, the “phosphorylation of ATF2 Thr69/71 and eIF4B S422” value in assay [3] was “no change in phosphorylation”. Also, the “inhibitory activity on other families of related kinases (p38, JNK1, and RSKs)” value in the assay with p38, JNK1, and RSKs is “no inhibitory activity”.
